According to PubChem BioAssay (NCI):
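Five compound concentrations were applied to cells in 96-well plates for 48 hours; endpoints were derived by simple linear interpolation of the resulting dose-response curve. TGI: concentration producing complete growth inhibition.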

Tests used:
Assay in all cases: DTP human tumour cell line panel, 48 h
[1] = system: SF-539 CNS
[2] = system: OVCAR-5 ovarian
[3] = system: HCT-116 colon
[4] = system: MOLT-4 leukemia
[5] = system: HL-60(TB) leukemia
[6] = system: OVCAR-3 ovarian
[7] = system: SK-MEL-2 melanoma
[8] = system: SNB-19 CNS
[9] = system: EKVX NSCLC
[10] = system: SF-295 CNS
[11] = system: ACHN renal
[12] = system: K-562 leukemia
[13] = system: UACC-257 melanoma
[14] = system: SNB-78 CNS
[15] = system: A498 renal
[16] = system: XF 498 CNS
[17] = system: SW-620 colon
[18] = system: SNB-75 CNS
[19] = system: HT29 colon
[20] = system: M19-MEL melanoma
[21] = system: COLO 205 colon
[22] = system: DMS 114 small cell lung
[23] = system: U251 CNS
[24] = system: MALME-3M melanoma
[25] = system: CAKI-1 renal
[26] = system: UACC-62 melanoma
[27] = system: OVCAR-8 ovarian
[28] = system: SF-268 CNS
[29] = system: 786-0 renal
[30] = system: CCRF-CEM leukemia
[31] = system: SN12C renal
[32] = system: M14 melanoma
[33] = system: HOP-62 NSCLC
[34] = system: IGROV1 ovarian
[35] = system: NCI-H23 lung
[36] = system: A549 NSCLC
[37] = system: LOX IMVI melanoma
[38] = system: HCT-15 colon
[39] = system: RXF 393 renal
[40] = system: NCI-H226 lung
[41] = system: KM20L2 colon
[42] = system: TK-10 renal
[43] = system: SK-MEL-5 melanoma
[44] = system: DMS 273 small cell lung
[45] = system: NCI-H460 lung
[46] = system: NCI-H522 lung
[47] = system: HOP-92 NSCLC
[48] = system: UO-31 renal
[49] = system: OVCAR-4 ovarian
[50] = system: LXFL 529 NSCLC
[51] = system: DLD-1 colon
[52] = system: SK-MEL-28 melanoma
[53] = system: KM12 colon
[54] = system: HOP-18 NSCLC
[55] = system: RPMI-8226 leukemia
[56] = system: SK-OV-3 ovarian
[57] = system: HCC-2998 colon

SMILES: O=C1c2ccccc2C(=O)c2c(NCCNCCO)ccc(O)c21
- TGI [1]: 12.1 µM
- TGI [2]: 8.33 µM
- TGI [3]: 12.9 µM
- TGI [4]: 7.49 µM
- TGI [5]: 8.77 µM
- TGI [6]: 19.5 µM
- TGI [7]: 14.7 µM
- TGI [8]: 14.2 µM
- TGI [9]: 14 µM
- TGI [10]: 15.8 µM
- TGI [11]: 11.2 µM
- TGI [12]: > 100 µM
- TGI [13]: 13.5 µM
- TGI [14]: 20.2 µM
- TGI [15]: 19.4 µM
- TGI [16]: 18.8 µM
- TGI [17]: 12.9 µM
- TGI [18]: 15.7 µM
- TGI [19]: 10.2 µM
- TGI [20]: 12.4 µM
- TGI [21]: 10.3 µM
- TGI [22]: 17.4 µM
- TGI [23]: 14.7 µM
- TGI [24]: 11.7 µM
- TGI [25]: 11.5 µM
- TGI [26]: 13.6 µM
- TGI [27]: 13.5 µM
- TGI [28]: 13.1 µM
- TGI [29]: 15.9 µM
- TGI [30]: 17.3 µM
- TGI [31]: 12.8 µM
- TGI [32]: 15.8 µM
- TGI [33]: 14.5 µM
- TGI [34]: 13.4 µM
- TGI [35]: 12 µM
- TGI [36]: 11.2 µM
- TGI [37]: 2.85 µM
- TGI [38]: 13.7 µM
- TGI [39]: 7.92 µM
- TGI [40]: 6.56 µM
- TGI [41]: 12.3 µM
- TGI [42]: 15.3 µM
- TGI [43]: 12.7 µM
- TGI [44]: 10.7 µM
- TGI [45]: 6.85 µM
- TGI [46]: 11.8 µM
- TGI [47]: 13.4 µM
- TGI [48]: 5.58 µM
- TGI [49]: 6.53 µM
- TGI [50]: 15.5 µM
- TGI [51]: 15.6 µM
- TGI [52]: 11.4 µM
- TGI [53]: 8.1 µM
- TGI [54]: 21.4 µM
- TGI [55]: 11.7 µM
- TGI [56]: 13.8 µM
- TGI [57]: 17.8 µM

SMILES: CC(Oc1ccc(OCC2CCCCC2)cc1)C(N)=O (stereo unspecified)
- TGI [1]: > 100 µM
- TGI [3]: > 100 µM
- TGI [4]: > 100 µM
- TGI [5]: > 100 µM
- TGI [6]: > 100 µM
- TGI [7]: > 100 µM
- TGI [10]: > 100 µM
- TGI [11]: > 100 µM
- TGI [12]: > 100 µM
- TGI [13]: > 100 µM
- TGI [14]: > 100 µM
- TGI [16]: > 100 µM
- TGI [17]: > 100 µM
- TGI [18]: > 100 µM
- TGI [19]: > 100 µM
- TGI [20]: > 100 µM
- TGI [22]: > 100 µM
- TGI [23]: > 100 µM
- TGI [24]: > 100 µM
- TGI [26]: > 100 µM
- TGI [27]: > 100 µM
- TGI [28]: > 100 µM
- TGI [29]: > 100 µM
- TGI [30]: > 100 µM
- TGI [31]: > 100 µM
- TGI [32]: > 100 µM
- TGI [35]: > 100 µM
- TGI [36]: > 100 µM
- TGI [37]: > 100 µM
- TGI [38]: > 100 µM
- TGI [40]: > 100 µM
- TGI [42]: > 100 µM
- TGI [43]: > 100 µM
- TGI [44]: > 100 µM
- TGI [45]: > 100 µM
- TGI [46]: > 100 µM
- TGI [48]: > 100 µM
- TGI [49]: > 100 µM
- TGI [50]: > 100 µM
- TGI [51]: > 100 µM
- TGI [52]: > 100 µM
- TGI [53]: > 100 µM
- TGI [54]: > 100 µM
- TGI [56]: > 100 µM
